The experiment deals with T1, hTRPM8 (Homo sapiens, UniProt Q7Z2W7).
T1 construct: expressed in transfected cells
T1 sequence (Q7Z2W7 whole entry): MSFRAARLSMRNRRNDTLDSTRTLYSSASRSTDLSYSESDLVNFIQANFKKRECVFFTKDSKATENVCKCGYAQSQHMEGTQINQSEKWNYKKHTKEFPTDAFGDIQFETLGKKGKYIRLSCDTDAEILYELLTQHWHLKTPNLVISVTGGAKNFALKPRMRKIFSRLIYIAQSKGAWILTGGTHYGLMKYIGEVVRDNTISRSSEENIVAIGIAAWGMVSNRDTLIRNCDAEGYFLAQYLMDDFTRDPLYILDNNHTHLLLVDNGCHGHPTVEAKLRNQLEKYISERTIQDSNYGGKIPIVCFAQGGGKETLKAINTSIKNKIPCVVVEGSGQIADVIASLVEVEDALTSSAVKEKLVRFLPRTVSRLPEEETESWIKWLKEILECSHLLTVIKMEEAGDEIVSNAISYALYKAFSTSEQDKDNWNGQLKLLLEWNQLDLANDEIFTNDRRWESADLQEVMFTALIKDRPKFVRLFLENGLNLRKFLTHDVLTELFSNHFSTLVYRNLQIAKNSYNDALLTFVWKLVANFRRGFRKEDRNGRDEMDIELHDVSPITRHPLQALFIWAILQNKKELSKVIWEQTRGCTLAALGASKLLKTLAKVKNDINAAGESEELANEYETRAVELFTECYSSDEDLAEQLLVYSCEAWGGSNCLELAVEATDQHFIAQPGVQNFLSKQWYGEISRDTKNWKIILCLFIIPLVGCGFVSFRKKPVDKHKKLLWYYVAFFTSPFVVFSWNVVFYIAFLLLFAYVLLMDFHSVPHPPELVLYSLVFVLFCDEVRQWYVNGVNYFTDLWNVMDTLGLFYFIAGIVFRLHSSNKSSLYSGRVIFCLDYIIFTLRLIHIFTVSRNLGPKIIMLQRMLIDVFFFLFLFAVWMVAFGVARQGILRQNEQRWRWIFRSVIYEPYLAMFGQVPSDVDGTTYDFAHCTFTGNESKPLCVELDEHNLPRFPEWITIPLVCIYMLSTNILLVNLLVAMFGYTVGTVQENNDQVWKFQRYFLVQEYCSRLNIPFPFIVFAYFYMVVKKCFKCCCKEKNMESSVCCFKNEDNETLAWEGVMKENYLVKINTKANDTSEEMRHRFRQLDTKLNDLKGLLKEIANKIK
Put plainly: Assay on TRPM8 modulators: calcium imaging (Fluo-4, Flexstation) in HEK293 cell line stably expressing hTRPM8. As to conditions: HEK293 cells stably expressing hTRPM8, calcium influx, sigmoidal dose-response fit; read-out: EC50. Type of experiment: cell-based. The procedure: A HEK293 cell line stably expressing hTRPM8 was generated according to Klein et al., (Chem. Senses 36: 649-658, 2011) and receptor activation was monitored by calcium imaging in a Flexstation. For Ca-imaging assays of TRPM8 channel activation, cells were seeded on day 0 at a density of 12000 cells per well in Dulbecco's modified Eagle medium (DMEM) containing 9% foetal bovine serum in black, clear bottom 96-well plates that had been coated with 0.001% polyethyleneimine (molecular weight=60 000, Acros Organics). On day 2, agonists were evaluated via calcium imaging using Fluo-4. Briefly, growth medium was discarded, and the cells were incubated in the dark for 1 h at 37° C. in 50 μL loading buffer consisting of 2.7 μM Fluo-4 AM (Invitrogen) and […] probenecid (Sigma-Aldrich) in DMEM (without serum). After incubation, the plates were washed five times with 100 μL of assay buffer (in mM: 130 NaCl, 5 KCl, 10 HEPES, 2 CaCl2, and 10 glucose, pH7.4.) and further incubated in the dark at room temperature for 30 min. The cells were then washed five times with 100 μL assay buffer and then calcium influx to serial dilutions of inventive compounds were measured in a Flexstation 3 (Molecular Devices). Receptor activation was initiated following addition of 20 μl of a 10-fold concentrated ligand stock solution, which is also prepared in assay buffer. Fluorescence was continuously monitored for 15 seconds prior to ligand addition and for 105 seconds after ligand addition, for a total of 120 seconds. Maximal receptor activation in relation to solvent control and relative to 31.6 μM menthol is determined. Data from serial dilutions were processed with a KNIME workflow to fit a sigmoidal dose-response curve and to extrapolate EC50 values.
Take `CC1CC(C)C2C(C1)C1(CCCC1)ON2C(C)C` (centres unmarked) [Compound 13, 1-isopropyl-5,7-dimethylhexahydro-1H-spiro[benzo[c]isoxazole-3,1-cyclopentane]]: the concentration for a half-maximal effect (EC50) (as a rule, the concentration giving half of the maximal effect) lay within 1000 to 35000 nM.

As to `Cc1ccc(C)c([C@@]2(C)C[C@@H]3[C@@H]([C@@H](C)C2)N(C)OC3(C)C)c1` (racemic) [Compound 74, rac-(3aR,5R,7S,7aR)-5-(2,5-dimethylphenyl)-1,3,3,5,7-pentamethyloctahydrobenzo[c]isoxazole], the EC50 is less than 50 nM.

Turning to `COc1cccc([C@@]2(C)C[C@@H]3[C@@H]([C@@H](C)C2)N(C(C)C)OC3(C)C)n1` (racemic) [Compound 68, rac-(3aR,5R,7S,7aR)-1-isopropyl-5-(6-methoxypyridin-2-yl)-3,3,5,7-tetramethyloctahydrobenzo[c]isoxazole], the EC50 lay within 300 to 1000 nM.

For `Cc1ccc([C@H]2C[C@@H]3[C@@H]([C@@H](C)C2)N(C)OC3(C)C)c(C)c1` (racemic) [Compound 72, rac-(3aR,5R,7S,7aR)-5-(2,4-dimethylphenyl)-1,3,3,7-tetramethyloctahydrobenzo[c]isoxazole], the EC50 is 50 to 300 nM.

As for `COc1ccc([C@@]2(C)C[C@@H]3[C@@H]([C@@H](C)C2)N(C)OC3(C)C)cc1` (racemic) [Compound 104, rac-(3aR,5R,7S,7aR)-5-(4-methoxyphenyl)-1,3,3,5,7-pentamethyloctahydrobenzo[c]isoxazole], the EC50 fell in the range of 300 to 1000 nM.

As for `Cc1cc(C#N)ccc1[C@@]1(C)C[C@@H]2[C@@H]([C@@H](C)C1)N(C)OC2(C)C` (racemic) [Compound 130, rac-3-methyl-4-((3aR,5R,7S,7aR)-1,3,3,5,7-pentamethyloctahydrobenzo[c]isoxazol-5-yl)benzonitrile], the EC50 lay in the range of 50 to 300 nM.

On to `Cc1ccc(C#N)cc1[C@@]1(C)C[C@@H](C)[C@H]2[C@H](C1)C(C)(C)ON2C` (stereo in doubt) [Compound 139, rel-4-methyl-3-((3aS,5S,7R,7aS)-1,3,3,5,7-pentamethyloctahydrobenzo[c]isoxazol-5-yl)benzonitrile], for which the EC50 is 50 to 300 nM.

For `C[C@H]1C[C@@](C)(c2ccc(F)cc2F)C[C@@H]2[C@@H]1N(C)OC2(C)C` (racemic) [Compound 70, rac-(3aR,5R,7S,7aR)-5-(2,4-difluorophenyl)-1,3,3,5,7-pentamethyloctahydrobenzo[c]isoxazole], the EC50 fell in the range of 50 to 300 nM.

In the case of `Cc1cc(Cl)ccc1[C@H]1C[C@@H]2[C@@H]([C@@H](C)C1)N(C(C)C)OC2(C)C` (racemic) [Compound 98, rac-(3aR,5R,7S,7aR)-5-(4-chloro-2-methylphenyl)-1-isopropyl-3,3,7-trimethyloctahydrobenzo[c]isoxazole], the EC50 is 50 to 300 nM.

`CCC1(CC)C[C@@H]2[C@@H]([C@@H](C)C1)N(C)OC2(C)C` (racemic) [Compound 118, rac-(3aR,7S,7aR)-5,5-diethyl-1,3,3,7-tetramethyloctahydrobenzo[c]isoxazole]: the EC50 lay in the range of 1000 to 35000 nM.

Turning to `CCN1OC(C)(C)[C@@H]2C[C@](C)(CC=C(C)C)C[C@@H](C)[C@H]21` (racemic) [Compound 32, rac-(3aR,5R,7R,7aR)-1-ethyl-3,3,5,7-tetramethyl-5-(3-methylbut-2-en-1-yl)octahydrobenzo[c]isoxazole], the EC50 fell in the range of 1000 to 35000 nM.

Take `C[C@H]1C[C@@H](c2ccccc2)C[C@@H]2[C@@H]1N(C)OC2(C)C` (racemic) [Compound 52, rac-(3aR,5R,7S,7aR)-1,3,3,7-tetramethyl-5-phenyloctahydrobenzo[c]isoxazole]: the EC50 was in the range of 50 to 300 nM.

Consider `C[C@H]1C[C@@](C)(c2ccc(C(C)(C)C)cc2)C[C@@H]2[C@@H]1N(C)OC2(C)C` (racemic) [Compound 95, rac-(3aR,5R,7S,7aR)-5-(4-(tert-butyl)phenyl)-1,3,3,5,7-pentamethyloctahydrobenzo[c]isoxazole], for which the EC50 lay within 1000 to 35000 nM.

On to `CC1CC(C)[C@H]2[C@@H](C1C)C(C)(C)ON2C` (mixture of isomers) [Compound 117, rac-(3aR,7aS)-1,3,3,4,5,7-hexamethyloctahydrobenzo[c]isoxazole], for which the EC50 is 1000 to 35000 nM.

The values are drawn from patent publication US20230002334A1, “TRPM8 MODULATORS” (Givaudan SA, priority 2019, published 2023).
